Source: patent publication US20120189546A1, “Radiolabelling Method Using Cycloalkyl Groups” (BAYER PHARMA AKTIENGESELLSCHAFT, priority 2009, published 2012)
“And” between values parts separate entries of the source, which are not always exact repeats. Identical values can stand only once. Blank lines part the entries; values can stand above or below the compound they belong to.

Tests used:
[1] = In vitro plasma stability, rat plasma; assay type: in vitro ADME; settings: 0.3 μM
Description: (§1) This investigation determines the stability of test compound in plasma of different species. […] Samples were freezed at −20° C. overnight, subsequently centrifuged for 15 minutes at 3000 rpm and the supernatant was analyzed with an Agilent 1200 HPLC-system with LCMS/MS detection.
(§2) The stability of the test compound was quantified by comparison of the remaining amount at the different time points with the amount of the 0 min sample and is expressed in % of initial concentration.

[2] = In vitro plasma stability, human plasma; assay type: in vitro ADME; settings: for MEAN [%] / % v. 0 h: human female plasma, 0.3 μM; for % v. 0 h: single values
Description: as §1, §2

[3] = system: rat hepatocytes; assay: In vitro metabolic stability in rat hepatocytes with calculation of hepatic in vivo blood clearance; assay type: in vitro ADME; settings: male Wistar rat hepatocytes, 0.5x10^6 cells/ml, 1 μM test compound
Description: Hepatocytes from Han Wistar rats were isolated via a 2-step perfusion method. After perfusion, the liver was carefully removed from the rat: the liver capsule was opened and the hepatocytes were gently shaked out into a Petri dish with ice-cold WME. The resulting cell suspension was filtered through sterile gaze in 50 mL falcon tubes and centrifuged at 50×g for 3 min at room temperature. The cell pellet was resuspended in 30 mL WME and centrifuged through a Percoll® gradient for 2 times at 100×g. The hepatocytes were washed again with Williams' medium E (WME) and resuspended in medium containing 5% FCS. Cell viability was determined by trypan blue exclusion.
For the metabolic stability assay liver cells were distributed in WME containing 5% FCS to glas vials at a density of 0.5×10^6 vital cells/ml. The test compound was added to a final concentration of 1 μM. During incubation, the hepatocyte suspensions were continuously shaken and aliquots were taken at 2, 8, 16, 30, 45 and 60 min, to which equal volumes of cold methanol were immediately added. Samples were freezed at −20° C. overnight, subsequently centrifuged for 15 minutes at 3000 rpm and the supernatant was analyzed with an Agilent 1200 HPLC-system with LCMS/MS detection.
The half-life of a test compound was determined from the concentration-time plot. From the half-life the intrinsic clearances were calculated.

[4] = system: A549 human lung carcinoma cell line; assay: [H-3]-D-Tyrosine uptake competition in A549 cells; assay type: cell-based; settings: 30 min, 100 μM competitor, 2.8% without competitor
Description: Cells were seeded 1-2 days prior to the assay and grown until sub-confluency in 48 well plates. Prior to the assay the cell culture medium was removed and the cells were washed with phosphate buffered saline (PBS)+0.1% Bovine serum albumin (BSA). After adding the assay buffer (PBS+0.1% BSA), 37 KBq of the radiotracer [H-3]-D-Tyrosine was added immediately and was incubated with cells at 37° C. in a humidified atmosphere containing 5% CO2 for 30 min. For investigation of transporter characteristics and competitions, the cells were coincubated with 100 μM F-DOPA or compound 29 (FCBT) for 30 min to monitor radioactivity uptake. To stop tracer uptake the incubation buffer was removed after 30 min, the cells were washed and lysed with 1 M sodium hydroxide. Subsequently the amount of radioactivity in the cell lysate was determined in a scintillation counter.
(§3) Aliquots of the applied tracer amount were measured in a gamma counter to determine the total amount in counts per minute (cpm) together with the samples to correct for tracer decay. Cell numbers per well were determined after detaching cells by trypsinization in 3 wells prior to start of the assay and counted in cell chamber under a microscope. The mean of cells was calculated. To compare tracer uptake between different studies the cell number was normalized to 100,000 cells.

[5] = biological target: T1, LAT1 (Homo sapiens, UniProt Q01650); assay: [H-3]-D-Tyrosine efflux experiment in A549 cells (LAT1 substrate test); assay type: cell-based; settings: A549 cells preloaded with [H-3]-D-Tyrosine, 100 μM cold compound, 0.7% without compound
T1 construct: endogenous in cells; host or cells: A549 human lung carcinoma cells
T1 sequence (Q01650 whole entry): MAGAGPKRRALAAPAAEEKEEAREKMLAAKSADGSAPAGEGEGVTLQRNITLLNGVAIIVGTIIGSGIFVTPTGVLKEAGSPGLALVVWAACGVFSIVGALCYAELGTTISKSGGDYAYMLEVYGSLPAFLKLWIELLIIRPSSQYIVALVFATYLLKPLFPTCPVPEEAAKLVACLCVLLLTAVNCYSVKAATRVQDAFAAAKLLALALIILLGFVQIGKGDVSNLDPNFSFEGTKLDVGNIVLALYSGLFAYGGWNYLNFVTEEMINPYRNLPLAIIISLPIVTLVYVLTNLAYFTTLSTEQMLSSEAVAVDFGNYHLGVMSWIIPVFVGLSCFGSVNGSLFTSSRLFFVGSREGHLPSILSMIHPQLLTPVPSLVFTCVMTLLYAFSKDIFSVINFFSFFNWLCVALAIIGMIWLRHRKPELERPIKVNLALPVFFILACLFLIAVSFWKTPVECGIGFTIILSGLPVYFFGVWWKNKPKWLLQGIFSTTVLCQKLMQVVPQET
T1 sequence (P08195 102-630 partner): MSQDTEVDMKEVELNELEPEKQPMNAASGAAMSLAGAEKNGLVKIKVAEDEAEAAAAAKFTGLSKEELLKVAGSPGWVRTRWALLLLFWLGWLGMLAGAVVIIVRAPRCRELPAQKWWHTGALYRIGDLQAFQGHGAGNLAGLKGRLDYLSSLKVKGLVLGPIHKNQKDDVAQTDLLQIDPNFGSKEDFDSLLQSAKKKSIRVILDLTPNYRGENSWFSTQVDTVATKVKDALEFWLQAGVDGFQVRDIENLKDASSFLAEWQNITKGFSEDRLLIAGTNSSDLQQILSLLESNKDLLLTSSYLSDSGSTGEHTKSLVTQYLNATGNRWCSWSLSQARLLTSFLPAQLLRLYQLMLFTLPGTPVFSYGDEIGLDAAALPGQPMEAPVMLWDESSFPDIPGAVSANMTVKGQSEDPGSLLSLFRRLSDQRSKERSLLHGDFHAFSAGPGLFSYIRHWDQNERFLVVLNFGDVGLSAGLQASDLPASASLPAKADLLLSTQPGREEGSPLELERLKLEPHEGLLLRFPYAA
Description: To study if the compounds are transported by LAT1, the cells were incubated with 37 kBq of the radiotracer [H-3]-D-Tyrosine and was incubated with cells at 37° C. in a humidified atmosphere containing 5% CO2 for 30 min. Then the cells were washed with PBS and fresh assay buffer was added to the cells containing 100 μM concentration of cold compound and the cells were incubated for another 30 min. To stop tracer efflux the incubation buffer was removed after 30 min, the cells were washed and lysed with 1 M sodium hydroxide. Subsequently the amount of radioactivity in the cell lysate was determined in a scintillation counter.
as §3

[6] = system: A549 cells; assay: Cell uptake of [18F] compound 32b into A549 cells; assay type: cell-based, human
Description: We studied the uptake of the radiolabeled [^18F] compound 32b into A549 cells, 90000 A549 cells were seeded per cavity of a 48 well incubation plate (Becton Dickinson; Cat. 353078) and incubated for 2 days in RPMI 1640 with GlutaMAX (Invitrogen; Cat. 31331) medium supplemented with 10% FCS in an incubator (37° C., 5% CO2). Cells were washed once with PBS and then incubated for 10-30 minutes at 37° C. in PBS with 0.25 MBq of compound 32b ([^18F] labeled). After incubation, the cells were washed once with cold PBS, lysed with 1M NaOH, and finally lysates were measured in a gamma counter.

SMILES: N[C@@H](Cc1ccc(OCCF)cc1)C(=O)O [O-(2-[^19F]Fluoroethyl)-L-tyrosine, reference compound]
- MEAN [%] ([1]; rat male plasma, 1 min incubation): 100%
- % v. 0 h ([1]; rat male plasma, 1 min incubation, single values, listed as FET): 92% and 108%
- MEAN [%] ([1]; rat male plasma, 30 min incubation): 109%
- % v. 0 h ([1]; rat male plasma, 30 min incubation, single values, listed as FET): 110% and 109%
- MEAN [%] ([1]; rat male plasma, 60 min incubation): 119%
- % v. 0 h ([1]; rat male plasma, 60 min incubation, single values, listed as FET): 120% and 118%
- MEAN [%] ([2]; 1 min incubation): 100%
- % v. 0 h ([2]; 1 min incubation, listed as FET): 101% and 99%
- MEAN [%] ([2]; 30 min incubation): 103%
- % v. 0 h ([2]; 30 min incubation, listed as FET): 101% and 105%
- MEAN [%] ([2]; 60 min incubation): 50%
- % v. 0 h ([2]; 60 min incubation, listed as FET): 52% and 49%
- degradation in human plasma after 60 min [2]: 50%

- MEAN [%] ([1]; male, rat, 2 min): 100%
- % v. 0 h ([1]; male, rat, 30 min): 124%
- MEAN [%] ([1]; male, rat, 30 min): 124%
- MEAN [%] ([1]; male, rat, 60 min): 133%
- MEAN [%] ([2]; 2 min incubation): 100%
- % v. 0 h ([2]; 2 min incubation, trifluoroacetate salt): 96% and 104%
- MEAN [%] ([2]; 30 min incubation): 111%
- % v. 0 h ([2]; 30 min incubation, trifluoroacetate salt): 121% and 100%
- MEAN [%] ([2]; 60 min incubation): 104%
- % v. 0 h ([2]; 60 min incubation, trifluoroacetate salt): 104% and 105%
- degradation in human plasma after 60 min [2]: did not show any degradation
- CL blood, ws, hep [3]: 7.17 mL/min/kg
- amount of D-Tyrosine which remained in the cell after 30 min (efflux) [5]: 0.08 % applied dose/100.000 cells
SMILES: N[C@@H](Cc1ccc(O[C@H]2C[C@@H](F)C2)cc1)C(=O)O.O=C(O)C(F)(F)F [Compound 29, O-(cis-3-Fluorocyclobutyl)-L-tyrosine trifluoroacetate salt]
- uptake of the applied [H-3]-D-Tyrosine with compound present in the assay buffer [4]: 1.1%

SMILES: N[C@@H](Cc1cc(O)c(O)cc1[18F])C(=O)O [F-DOPA, reference compound]
- uptake of the applied [H-3]-D-Tyrosine with compound present in the assay buffer [4]: 1.8%
- amount of D-Tyrosine which remained in the cell after 30 min (efflux) [5]: 0.11 % applied dose/100.000 cells

SMILES: N[C@@H](Cc1ccc(O[C@H]2C[C@@H]([18F])C2)cc1)C(=O)O [Compound 32b, O-(cis-3-[^18F]Fluorocyclobutyl)-L-tyrosine]
- maximum uptake ([6]; A549 cells, after 30 min, 0.25 MBq in PBS, 37° C.): 5.87 % applied dose/10^6 cells
- accumulation in tumor cells ([6]; all tested tumor cells): good accumulation
